Laboratory results published in patent US8952024B2, “Herbicidal pyrimidone derivatives” (E I du Pont de Nemours and Company, priority 2009, dated 2015).

Legend:
Type in all cases: in vivo
[1] = test system: giant foxtail (Setaria faberii); assay: Test B pre-/postemergence plant response
Outline: (§1)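 Plants treated either at seeding (loam/sand soil) or postemergence at 2 to 18 cm height, using a surfactant-containing non-phytotoxic solvent formulation. Evaluation was visual after 13 to 15 days, 0 to 100 scale relative to controls.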

[2] = test system: Italian ryegrass (Lolium multiflorum); assay: Test B pre-/postemergence plant response
Outline: as §1

[3] = test system: ragweed (common ragweed, Ambrosia elatior); assay: Test B pre-/postemergence plant response
Outline: as §1

[4] = test system: canarygrass (Phalaris minor); assay: Test B postemergence plant response
Outline: (§2)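 Plants at the 1- to 4-leaf stage (2 to 18 cm tall), grown in pots of peat moss/vermiculite medium with wetting agent and starter nutrients, received postemergence applications of test chemicals. After 13 to 15 days in a greenhouse, injury was rated visually against untreated controls on a 0 (no effect) to 100 (complete control) scale.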

[5] = test system: windgrass (Apera spica-venti); assay: Test B postemergence plant response
Outline: as §2

[6] = test system: chickweed (Stellaria media); assay: Test B postemergence plant response
Outline: as §2

[7] = test system: winter barley (Hordeum vulgare); assay: Test B postemergence plant response
Outline: as §2

[8] = test system: umbrella sedge (Cyperus difformis); assay: Test B flooded paddy test
Outline: (§3)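 Visual scores run from 0 (no effect) to 100 (complete control), assigned by comparison with controls 13 to 15 days after treatment. Test compounds went straight into water standing 3 cm above the soil, around plants at the 2-leaf stage kept in a greenhouse.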

[9] = test system: ducksalad (Heteranthera limosa); assay: Test B flooded paddy test
Outline: as §3

rice (Oryza sativa) = assay: Test B flooded paddy test
Outline: as §3

[10] = test system: barnyardgrass (Echinochloa crus-galli); assay: Test B flooded paddy test
Outline: as §3

[11] = 62 g ai/ha, postemergence, 0 is no effect, 100 is complete control, 13 to 15 days
[12] = Flood, 31 g ai/ha, scale 0 to 100 (0 no effect, 100 complete control)

## O=C1CCCC(O)=C1C(=O)c1cnc(-c2ccccc2)n(C2CCCCC2)c1=O [Compound 128, 3-cyclohexyl-5-[(2-hydroxy-6-oxo-1-cyclohexen-1-yl)carbonyl]-2-phenyl-4(3H)-pyrimidinone]
[1]; [11]
  Foxtail, Giant plant response rating (0 to 100 scale): 95
[1]; Setaria faberi, post-emergence, Postemergence, 31 g ai/ha, 0 to 100 scale (0 no effect, 100 complete control), read-out: Plant response rating, Foxtail, Giant
  pest or weed control at 31 g/ha: 95%
[1]; Setaria faberi, post-emergence, Postemergence, 125 g ai/ha, scale 0 to 100 (0 no effect, 100 complete control), read-out: Plant response rating, Foxtail, Giant
  pest or weed control at 125 g/ha: 98%
[1]; Setaria faberi, post-emergence, Postemergence, 250 g ai/ha, scale 0 to 100 (0 no effect, 100 complete control), 13 to 15 days, read-out: Plant response rating, Foxtail, Giant
  pest or weed control at 250 g/ha: 98%
[2]; [11]
  Ryegrass, Italian plant response rating (0 to 100 scale): 0
[2]; Lolium multiflorum, post-emergence, Postemergence, 31 g ai/ha, 0 to 100 scale (0 no effect, 100 complete control), read-out: Plant response rating, Ryegrass, Italian
  pest or weed control at 31 g/ha: 0%
[2]; Lolium multiflorum, post-emergence, Postemergence, 125 g ai/ha, scale 0 to 100 (0 no effect, 100 complete control), read-out: Plant response rating, Ryegrass, Italian
  pest or weed control at 125 g/ha: 5%
[2]; Lolium multiflorum, post-emergence, Postemergence, 250 g ai/ha, scale 0 to 100 (0 no effect, 100 complete control), 13 to 15 days, read-out: Plant response rating, Ryegrass, Italian
  pest or weed control at 250 g/ha: 30%
[3]; [11]
  Ragweed plant response rating (0 to 100 scale): 85
[3]; Ambrosia artemisiifolia, post-emergence, 360 h, Postemergence, 31 g ai/ha, 0 to 100 scale (0 no effect, 100 complete control), read-out: Plant response rating, Ragweed
  pest or weed control at 31 g/ha: 85%
[3]; Ambrosia artemisiifolia, post-emergence, 360 h, Postemergence, 125 g ai/ha, scale 0 to 100 (0 no effect, 100 complete control), read-out: Plant response rating, Ragweed
  pest or weed control at 125 g/ha: 95%
[3]; Ambrosia artemisiifolia, post-emergence, 360 h, Postemergence, 250 g ai/ha, scale 0 to 100 (0 no effect, 100 complete control), 13 to 15 days, read-out: Plant response rating, Ragweed
  pest or weed control at 250 g/ha: 98%
[4]; [11]
  Canarygrass plant response rating (0 to 100 scale): 10
[4]; Phalaris minor, post-emergence, 360 h, Postemergence, 31 g ai/ha, 0 to 100 scale (0 no effect, 100 complete control), read-out: Plant response rating, Canarygrass
  pest or weed control at 31 g/ha: 10%
[4]; Phalaris minor, post-emergence, 360 h, Postemergence, 125 g ai/ha, scale 0 to 100 (0 no effect, 100 complete control), read-out: Plant response rating, Canarygrass
  pest or weed control at 125 g/ha: 30%
[4]; Phalaris minor, post-emergence, 360 h, Postemergence, 250 g ai/ha, scale 0 to 100 (0 no effect, 100 complete control), 13 to 15 days, read-out: Plant response rating, Canarygrass
  pest or weed control at 250 g/ha: 30%
[5]; [11]
  Windgrass plant response rating (0 to 100 scale): 65
[5]; Apera spica-venti, post-emergence, 360 h, Postemergence, 31 g ai/ha, 0 to 100 scale (0 no effect, 100 complete control), read-out: Plant response rating, Windgrass
  pest or weed control at 31 g/ha: 50%
[5]; Apera spica-venti, post-emergence, 360 h, Postemergence, 125 g ai/ha, scale 0 to 100 (0 no effect, 100 complete control), read-out: Plant response rating, Windgrass
  pest or weed control at 125 g/ha: 70%
[5]; Apera spica-venti, post-emergence, 360 h, Postemergence, 250 g ai/ha, scale 0 to 100 (0 no effect, 100 complete control), 13 to 15 days, read-out: Plant response rating, Windgrass
  pest or weed control at 250 g/ha: 85%
[6]; [11]
  Chickweed plant response rating (0 to 100 scale): 90
[6]; Stellaria media, post-emergence, 360 h, Postemergence, 31 g ai/ha, 0 to 100 scale (0 no effect, 100 complete control), read-out: Plant response rating, Chickweed
  pest or weed control at 31 g/ha: 90%
[6]; Stellaria media, post-emergence, 360 h, Postemergence, 125 g ai/ha, scale 0 to 100 (0 no effect, 100 complete control), read-out: Plant response rating, Chickweed
  pest or weed control at 125 g/ha: 95%
[6]; Stellaria media, post-emergence, 360 h, Postemergence, 250 g ai/ha, scale 0 to 100 (0 no effect, 100 complete control), 13 to 15 days, read-out: Plant response rating, Chickweed
  pest or weed control at 250 g/ha: 100%
[7]; [11]
  Barley plant response rating (0 to 100 scale): 0
[7]; Hordeum vulgare, post-emergence, Postemergence, 31 g ai/ha, 0 to 100 scale (0 no effect, 100 complete control), read-out: Plant response rating, Barley
  plant injury at 31 g/ha: 0%
[7]; Hordeum vulgare, post-emergence, Postemergence, 125 g ai/ha, scale 0 to 100 (0 no effect, 100 complete control), read-out: Plant response rating, Barley
  plant injury at 125 g/ha: 0%
[7]; Hordeum vulgare, post-emergence, Postemergence, 250 g ai/ha, scale 0 to 100 (0 no effect, 100 complete control), 13 to 15 days, read-out: Plant response rating, Barley
  plant injury at 250 g/ha: 5%
[8]; Cyperus difformis, 360 h, 250 g ai/ha, flooded paddy test, visual rating on 0 to 100 scale (0 no effect, 100 complete control) after 13 to 15 days, read-out: Plant response rating, Flood, Sedge, Umbrella
  pest or weed control at 250 g/ha: 75%
[8]; Cyperus difformis, 360 h, Flood (flooded paddy test), 62 g ai/ha, scale of 0 to 100 where 0 is no effect and 100 is complete control, 13 to 15 days, read-out: Plant response rating, Sedge, Umbrella
  pest or weed control at 62 g/ha: 30%
[8]; Cyperus difformis, 360 h, Flood (flooded paddy test), 125 g ai/ha, scale 0 to 100, 0 is no effect, 100 is complete control, 13 to 15 days, read-out: Plant response rating, Sedge, Umbrella
  pest or weed control at 125 g/ha: 60%
[8]; [12]
  Sedge, Umbrella plant response rating: 0
[9]; [12]
  Ducksalad plant response rating: 90
[9]; Heteranthera limosa, 360 h, 250 g ai/ha, flooded paddy test, visual rating on 0 to 100 scale (0 no effect, 100 complete control) after 13 to 15 days, read-out: Plant response rating, Flood, Ducksalad
  pest or weed control at 250 g/ha: 100%
[9]; Heteranthera limosa, 360 h, Flood (flooded paddy test), 62 g ai/ha, scale of 0 to 100 where 0 is no effect and 100 is complete control, 13 to 15 days, read-out: Plant response rating, Ducksalad
  pest or weed control at 62 g/ha: 95%
[9]; Heteranthera limosa, 360 h, Flood (flooded paddy test), 125 g ai/ha, scale 0 to 100, 0 is no effect, 100 is complete control, 13 to 15 days, read-out: Plant response rating, Ducksalad
  pest or weed control at 125 g/ha: 95%
Rice (Oryza sativa); [12]
  Rice plant response rating: 0
Rice (Oryza sativa); Oryza sativa, 250 g ai/ha, flooded paddy test, visual rating on 0 to 100 scale (0 no effect, 100 complete control) after 13 to 15 days, read-out: Plant response rating, Flood, Rice
  plant injury at 250 g/ha: 35%
Rice (Oryza sativa); Oryza sativa, Flood (flooded paddy test), 62 g ai/ha, scale of 0 to 100 where 0 is no effect and 100 is complete control, 13 to 15 days, read-out: Plant response rating, Rice
  plant injury at 62 g/ha: 0%
Rice (Oryza sativa); Oryza sativa, Flood (flooded paddy test), 125 g ai/ha, scale 0 to 100, 0 is no effect, 100 is complete control, 13 to 15 days, read-out: Plant response rating, Rice
  plant injury at 125 g/ha: 10%
[10]; Echinochloa crus-galli, 360 h, 250 g ai/ha, flooded paddy test, visual rating on 0 to 100 scale (0 no effect, 100 complete control) after 13 to 15 days, read-out: Plant response rating, Flood, Barnyardgrass
  pest or weed control at 250 g/ha: 40%
[10]; Echinochloa crus-galli, 360 h, Flood (flooded paddy test), 62 g ai/ha, scale of 0 to 100 where 0 is no effect and 100 is complete control, 13 to 15 days, read-out: Plant response rating, Barnyardgrass
  pest or weed control at 62 g/ha: 10%
[10]; Echinochloa crus-galli, 360 h, Flood (flooded paddy test), 125 g ai/ha, scale 0 to 100, 0 is no effect, 100 is complete control, 13 to 15 days, read-out: Plant response rating, Barnyardgrass
  pest or weed control at 125 g/ha: 15%
[10]; [12]
  Barnyardgrass plant response rating: 0
